Drawing on patent publication US20240132457A1, “3-(2-(BENZO[D]THIAZOL-2-YL)-2-(PHENYLSUFONAMIDO)ETHYL)BENZIMIDAMIDE DERIVATIVES AND RELATED COMPOUNDS AS TMPRSS2 INHIBITORS FOR THE TREATMENT OF VIRAL INFECTIONS” (INTEGERBIO, INC., priority 2020, published 2024), this text covers IC50 for 6 compounds.

Some results are limits rather than exact numbers.

The target of the test is T1, Recombinant human TMPRSS2 protein (106-492 aa) (Homo sapiens, UniProt O15393).
T1 construct: Human TMPRSS2-(AA 106-492)-; purchased CusaBio CSB-YP023924HU; host or cells: yeast
T1 sequence (O15393 106-492): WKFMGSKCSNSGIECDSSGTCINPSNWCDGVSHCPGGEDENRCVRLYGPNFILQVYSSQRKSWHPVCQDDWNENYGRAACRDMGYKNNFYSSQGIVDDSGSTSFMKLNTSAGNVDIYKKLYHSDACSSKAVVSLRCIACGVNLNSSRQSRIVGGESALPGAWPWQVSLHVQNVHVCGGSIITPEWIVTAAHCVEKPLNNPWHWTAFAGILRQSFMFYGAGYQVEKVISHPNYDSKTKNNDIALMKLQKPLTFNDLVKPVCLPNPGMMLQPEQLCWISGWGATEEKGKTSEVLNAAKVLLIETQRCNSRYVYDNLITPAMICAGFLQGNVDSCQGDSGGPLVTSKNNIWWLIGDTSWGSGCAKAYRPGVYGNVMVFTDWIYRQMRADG
Briefly: TMPRSS2 Assay 1 (Example 41), fluorogenic Boc-Gln-Ala-Arg-AMC cleavage. Type of test: biochemical. The note with it: TMPRSS2 10 nM, substrate 25 μM, 20 min pre-incubation. As for the experimental part:
The enzyme (TMPRSS2, CusaBio cat #CSB-YP023924HU. Recombinant human TMPRSS2 protein (106-492 aa)N-terminal 6×His-tagged (“6×His” disclosed as SEQ ID NO: 4), expressed in yeast cells; MW=44.8 kDa, lyophilized from 20 mM: Tris HCl, 0.5 M NaCl, 6% Trehalose, pH 8.0, >85% purity as determined by SDS-PAGE. Uniprot: 015393; 10 nM in the reaction) and substrate (Boc-Gln-Ala-Arg-AMC; Enzo Cat #BML-P237-0005, MW=581.76 Da. 25 μM in the reaction) were prepared in Reaction Buffer (50 mM Tris-HCl pH 8, 150 mM NaCl, 0.005% Brij35, 1% DMSO). After the enzyme solution was delivered into the reaction well, the compounds in DMSO were delivered to the reaction mixture by using Acoustic Technology (Echo 550, LabCyte Inc. Sunnyvale, CA) in nanoliter range. After 20 min pre-incubation, the substrate solution was delivered into the reaction well to initiate the reaction. The enzyme activities were monitored every 5 min as a time-course measurement of the increase in fluorescence signal from fluorescently-labeled peptide substrate for 120 min. at room temperature. Data was analyzed by taking slope*(signal/time) of linear portion of measurement. The slope was calculated using Excel, and the curve fits were performed using Prism software.
`N=C(N)c1cccc(CC(NS(=O)(=O)c2ccccc2)c2nc3cccc(Cl)c3s2)c1` (single isomer, unassigned) [13 (enantiomer 1), 3-[2-Benzenesulfonamido-2-(7-chloro-1,3-benzothiazol-2-yl)ethyl]benzene-1-carboximidamide]: the IC50 (usually the concentration needed to halve the response being measured) was above 10 µM. The result for `CN1CCN(c2cccc3nc(C(Cc4cccc(C(=N)N)c4)NS(=O)(=O)c4ccccc4)sc23)CC1` (stereo not drawn) [Compound 15, 3-{2-Benzenesulfonamido-2-[7-(4-methylpiperazin-1-yl)-1,3-benzothiazol-2-yl]ethyl}benzene-1-carboximidamide] reads below 10 µM; that for `N=C(N)c1cccc(CC(NS(=O)(=O)c2cccc(-c3ccc(Cl)cc3Cl)c2)c2nc3ccccc3s2)c1` (single isomer, unassigned) [3 (enantiomer 2), 3-[2-(1,3-Benzothiazol-2-yl)-2-{2′,4′-dichloro-[1,1′-biphenyl]-3-sulfonamido}ethyl]benzene-1-carboximidamide], below 10 µM. The result for `N=C(N)c1cccc(CC(NS(=O)(=O)c2cccc(-c3ccc(Cl)cc3Cl)c2)c2nccs2)c1` (single isomer, unassigned) [Compound 5 (Isomer 3), 3-[2-{2′,4′-Dichloro-[1,1′-biphenyl]-3-sulfonamido}-2-(1,3-thiazol-2-yl)ethyl]benzene-1-carboximidamide] reads below 10 µM. Next, `N=C(N)c1cccc(CC(NS(=O)(=O)c2ccccc2)c2nc3cc(C(F)(F)F)ccc3s2)c1` (single isomer, unassigned) [12 (enantiomer 1), 3-{2-Benzenesulfonamido-2-[5-(trifluoromethyl)-1,3-benzothiazol-2-yl]ethyl}benzene-1-carboximidamide]: above 10 µM; `Cc1ccc2sc(C(Cc3cccc(C(=N)N)c3)NS(=O)(=O)c3ccccc3)nc2c1` (stereo not drawn) [Compound 9, 3-[2-Benzenesulfonamido-2-(5-methyl-1,3-benzothiazol-2-yl)ethyl]benzene-1-carboximidamide]: below 10 µM.
